Results: publication PMC7004565, “Nucleotide inhibition of the pancreatic ATP-sensitive K^+ channel explored with patch-clamp fluorometry” (eLife, 2020)
pIC50, pKd: −log10 of the molar value. Blank lines part the entries; values can stand above or below the compound they belong to.

How the values were obtained:
Kir6.2*,C166S-GFP + SUR1 = Kir6.2*,C166S-GFP + SUR1 (Homo sapiens, UniProt Q14654, C166S); test: Current inhibition in excised inside-out patches (patch-clamp fluorometry)
Kir6.2-GFP (no SUR1) = biological target: T1, Kir6.2-GFP (no SUR1) (Homo sapiens, UniProt Q14654); test: Current inhibition in excised inside-out patches; format: biochemical
T1 construct: ANAP labelling is specific and only full-length Kir6.2 is expressed at the cell membrane; expressed in transfected cells; host or cells: HEK-293T
T1 sequence (Q14654 1-390): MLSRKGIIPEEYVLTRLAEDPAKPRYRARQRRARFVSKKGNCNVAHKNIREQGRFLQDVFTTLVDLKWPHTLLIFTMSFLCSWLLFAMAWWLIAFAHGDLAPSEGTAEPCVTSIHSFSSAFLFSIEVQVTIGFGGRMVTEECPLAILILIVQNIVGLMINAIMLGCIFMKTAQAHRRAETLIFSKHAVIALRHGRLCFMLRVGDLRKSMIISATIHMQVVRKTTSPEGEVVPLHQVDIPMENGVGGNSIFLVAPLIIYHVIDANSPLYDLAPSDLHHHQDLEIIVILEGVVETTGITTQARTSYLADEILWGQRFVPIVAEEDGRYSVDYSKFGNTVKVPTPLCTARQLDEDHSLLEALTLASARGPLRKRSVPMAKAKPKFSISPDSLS
Experimental: (§1) Currents were measured from patches from cells expressing KATP that were excised in the absence of Mg^2+. Under such conditions, nucleotides can bind to both sites on SUR1, but no activation occurs, allowing inhibitory currents to be measured in isolation ([Gribble et al., 1998]; [Ueda et al., 1999]; [Puljung et al., 2019]).

Kir6.2-GFP + SUR1 [1] = biological target: T2, Kir6.2-GFP + SUR1 (Homo sapiens, UniProt Q14654); test: Current inhibition in excised inside-out patches (patch-clamp fluorometry); format: biochemical; set-up: full length, fully ANAP-labelled Kir6.2 protein was produced and successfully trafficked to the membrane in the presence of SUR1; expressed in transfected cells; host or cells: HEK-293T
Experimental: as §1
Currents were measured as described above.

Kir6.2-GFP + SUR1 [2] = biological target: T2, Kir6.2-GFP + SUR1; test: Current inhibition in excised inside-out patches; format: biochemical; set-up: ANAP labelling is specific and only full-length Kir6.2 is expressed at the cell membrane; expressed in transfected cells; host or cells: HEK-293T
Experimental: as §1

wild-type Kir6.2 + SUR1 = test system: wild-type Kir6.2 + SUR1; set-up: method as in Proks et al., 2010; Vedovato et al., 2015; conditions: MWC-type model, fits to published data; ref Proks et al., 2010; Vedovato et al., 2015; cited from earlier work
[3] = test system: second nucleotide binding site of SUR1; set-up: method as in Puljung et al., 2019; conditions: ref Puljung et al., 2019, cited from earlier work
[4] = excised patches, Hill fit with 1-Imax set to 0, n = 3
[5] = binding to stimulatory second nucleotide binding site of SUR1

T2 sequence (Q09428 whole entry partner, one chain of several): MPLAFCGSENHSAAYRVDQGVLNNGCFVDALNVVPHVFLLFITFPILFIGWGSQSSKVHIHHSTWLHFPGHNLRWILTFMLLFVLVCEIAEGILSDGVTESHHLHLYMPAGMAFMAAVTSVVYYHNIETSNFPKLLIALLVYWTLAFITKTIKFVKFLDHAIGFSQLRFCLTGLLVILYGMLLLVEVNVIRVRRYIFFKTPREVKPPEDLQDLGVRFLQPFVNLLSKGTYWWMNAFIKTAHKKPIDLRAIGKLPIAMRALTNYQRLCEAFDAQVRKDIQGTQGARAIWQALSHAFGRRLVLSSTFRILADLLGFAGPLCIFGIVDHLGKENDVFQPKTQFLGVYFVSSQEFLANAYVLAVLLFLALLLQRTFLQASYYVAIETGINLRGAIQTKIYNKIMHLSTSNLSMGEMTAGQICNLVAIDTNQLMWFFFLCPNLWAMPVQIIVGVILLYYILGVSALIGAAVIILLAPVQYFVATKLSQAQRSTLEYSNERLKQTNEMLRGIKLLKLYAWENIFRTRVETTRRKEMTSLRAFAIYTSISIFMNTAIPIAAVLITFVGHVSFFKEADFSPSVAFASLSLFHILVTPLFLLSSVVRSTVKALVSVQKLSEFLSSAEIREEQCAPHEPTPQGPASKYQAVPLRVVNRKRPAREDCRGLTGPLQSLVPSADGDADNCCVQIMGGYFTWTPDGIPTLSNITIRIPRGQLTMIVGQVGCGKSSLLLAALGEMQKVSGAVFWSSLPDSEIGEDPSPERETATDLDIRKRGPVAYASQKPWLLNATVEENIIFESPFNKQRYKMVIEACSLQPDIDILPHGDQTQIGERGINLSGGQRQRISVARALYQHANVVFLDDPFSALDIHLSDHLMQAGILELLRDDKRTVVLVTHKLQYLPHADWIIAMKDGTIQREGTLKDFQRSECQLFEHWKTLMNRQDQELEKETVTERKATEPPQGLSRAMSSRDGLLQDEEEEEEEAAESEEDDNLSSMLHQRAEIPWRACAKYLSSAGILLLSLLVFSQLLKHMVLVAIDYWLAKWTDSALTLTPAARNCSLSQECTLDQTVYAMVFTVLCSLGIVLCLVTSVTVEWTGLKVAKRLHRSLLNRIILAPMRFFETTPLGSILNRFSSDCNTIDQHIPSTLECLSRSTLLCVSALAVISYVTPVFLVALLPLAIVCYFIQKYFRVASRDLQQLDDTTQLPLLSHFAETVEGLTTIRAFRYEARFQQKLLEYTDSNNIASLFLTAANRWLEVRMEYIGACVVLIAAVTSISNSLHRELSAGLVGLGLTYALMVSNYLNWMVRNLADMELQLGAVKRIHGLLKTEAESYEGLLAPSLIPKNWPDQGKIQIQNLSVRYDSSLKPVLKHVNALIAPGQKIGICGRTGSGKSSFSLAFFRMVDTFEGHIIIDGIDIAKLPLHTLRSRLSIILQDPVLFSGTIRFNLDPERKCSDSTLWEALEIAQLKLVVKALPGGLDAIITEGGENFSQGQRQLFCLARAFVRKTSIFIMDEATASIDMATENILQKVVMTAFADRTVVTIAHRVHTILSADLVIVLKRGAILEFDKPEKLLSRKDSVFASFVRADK
Kir6.2*,C166S-GFP + SUR1, sequence (Q14654 whole entry C166S): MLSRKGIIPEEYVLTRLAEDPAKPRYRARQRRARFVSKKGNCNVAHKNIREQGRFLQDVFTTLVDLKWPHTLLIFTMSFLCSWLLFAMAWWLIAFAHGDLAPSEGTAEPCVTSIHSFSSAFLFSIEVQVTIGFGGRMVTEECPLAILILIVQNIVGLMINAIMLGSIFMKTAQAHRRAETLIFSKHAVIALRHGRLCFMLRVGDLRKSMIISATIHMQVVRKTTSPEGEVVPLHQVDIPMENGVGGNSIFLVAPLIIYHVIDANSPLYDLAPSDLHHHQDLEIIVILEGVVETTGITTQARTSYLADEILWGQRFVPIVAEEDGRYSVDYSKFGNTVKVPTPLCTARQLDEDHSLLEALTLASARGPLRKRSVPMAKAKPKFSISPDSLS
Kir6.2*,C166S-GFP + SUR1, sequence (Q09428 whole entry partner): as the sequence (Q09428 whole entry partner, one chain of several) above

- current inhibition at 10 mM (Kir6.2*,C166S-GFP + SUR1; 10 mM ATP, excised patch): only partial inhibition
- h (Hill coefficient) current inhibition (Kir6.2-GFP (no SUR1); excised inside-out patches, no SUR1, Mg2+-free, Hill fit): 1.15
- h (Hill coefficient) current inhibition (Kir6.2-GFP + SUR1 [1]; excised inside-out patches, Mg2+-free, Hill fit): 1.42
- h (Hill coefficient) current inhibition (Kir6.2-GFP + SUR1 [2]; Mg2+-free, Hill fit): 1.28
Compound: Nc1ncnc2c1ncn2[C@@H]1O[C@H](COP(=O)(O)OP(=O)(O)OP(=O)(O)O)[C@@H](O)[C@H]1O [ATP]
- D (wild-type Kir6.2 + SUR1): 0.03
- KA (wild-type Kir6.2 + SUR1): 30000 M⁻¹

- h (Hill coefficient) current inhibition (Kir6.2*,C166S-GFP + SUR1; [4]): 1.12
- h (Hill coefficient) current inhibition (Kir6.2-GFP + SUR1 [1]; [4]): 0.87
- pIC50 (Kir6.2-GFP + SUR1 [1]; excised patches, Hill fit with 1-Imax set to 0, n = 3, read-out: IC50 current inhibition): 1.20
Compound: CCN(CC)CC [triethylamine]

Compound: MgTNP-ADP
- KA [3, 5]: 58000 M⁻¹
- pKd [3, 5]: 4.77
- E (factor by which binding to SUR1 stabilised channel opening) ([3]; currents and binding measured in separate preparations): 2.2

- current inhibition by tolbutamide (Kir6.2-GFP (no SUR1); 100 µM tolbutamide, absence of SUR1, n = 5): not affected
- inhibition at 100 µM (Kir6.2-GFP + SUR1 [1]; 100 µM tolbutamide, excised inside-out patches, n = 4): 57.7%
- inhibition at 100 µM (Kir6.2-GFP + SUR1 [2]; 100 µM tolbutamide, n = 3): 46.5%
Compound: CCCCNC(=O)NS(=O)(=O)c1ccc(C)cc1 [tolbutamide]
